Data taken from US9247759B2, “Identification of human T2R receptors that respond to bitter compounds that elicit the bitter taste in compositions, and the use thereof in assays to identify compounds that inhibit (block) bitter taste in compositions and use thereof” (SENOMYX, INC., priority 2007, dated 2016).
Like-named read-outs stand apart in the source and are kept apart here.

What was measured:
[1] = target: hT2R8 (Homo sapiens (Human), UniProt Q9NYW2); assay: hT2R8 antagonist high-throughput FLIPR assay, stable cell line with G16g44, agonist andrographolide; format: cell-based
In short: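 Antagonist screen: compounds co-applied with agonist andrographolide at 200 μM, a dose giving 70–80% of maximal hT2R8 activation. Fluorescence measured by FLIPR in a stable HEK293 line expressing both hT2R8 and the promiscuous G16g44 protein.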

[2] = target: T1, hT2R14 (Homo sapiens (Human), UniProt Q9NYV8); assay: hT2R14 antagonist high-throughput FLIPR assay, stable cell line with G16g44, agonist aristolochic acid; format: cell-based; settings: read-out: IC50 on hT2R14 bitter receptor
In short: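 Compounds were co-applied with 3 μM aristolochic acid, a dose set to reach 70-80% of maximal hT2R14 activation. Read-out was FLIPR fluorescence in a stable HEK293 line co-expressing hT2R14 and G16g44.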

[3] = target: hT2R3 (Homo sapiens (Human), UniProt Q9NYW6); assay: hT2R panel inhibition, transient HEK293 G16g44, agonist Chloroquine pH6.5 50 μM; format: cell-based; settings: HEK293, compound at 25 μM; receptor activated to EC80 with the corresponding agonist; read-out: screening result against bitter receptor 3
In short: (§1)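 Panel: 22 human T2Rs, individually transient in stable G16g44 cells. Stim: EC80 agonist. Output: % reduction of activity by test cpd.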

[4] = target: hT2R4 (Homo sapiens (Human), UniProt Q9NYW5); assay: hT2R panel inhibition, transient HEK293 G16g44, agonist Chloroquine pH6.5 5 mM; format: cell-based; settings: HEK293, compound at 25 μM; receptor activated to EC80 with the corresponding agonist; class symbols; read-out: screening result against bitter receptor 4
In short: as §1

[5] = target: hT2R5 (Homo sapiens (Human), UniProt Q9NYW4); assay: hT2R panel inhibition, transient HEK293 G16g44, agonist Picoline 10 mM; format: cell-based; settings: HEK293, compound at 25 μM; receptor activated to EC80 with the corresponding agonist; read-out: screening result against bitter receptor 5
In short: as §1

[6] = target: hT2R7 (Homo sapiens (Human), UniProt Q9NYW3); assay: hT2R panel inhibition, transient HEK293 G16g44, agonist Chloroquine pH6.5 10 mM; format: cell-based; settings: HEK293, compound at 25 μM; receptor activated to EC80 with the corresponding agonist; read-out: screening result against bitter receptor 7
In short: as §1

[7] = target: hT2R9 (Homo sapiens (Human), UniProt Q9NYW1); assay: hT2R panel inhibition, transient HEK293 G16g44, agonist Ofloxacin 1 mM; format: cell-based; settings: HEK293, compound at 25 μM; receptor activated to EC80 with the corresponding agonist; read-out: screening result against bitter receptor 9
In short: as §1

[8] = target: hT2R10 (Homo sapiens (Human), UniProt Q9NYW0); assay: hT2R panel inhibition, transient HEK293 G16g44, agonist Strychnine 50 μM; format: cell-based; settings: HEK293, read-out: screening result against bitter receptor 10, compound at 25 μM; receptor activated to EC80 with the corresponding agonist
[9] = target: hT2R13 (Homo sapiens (Human), UniProt Q9NYV9); assay: hT2R panel inhibition, transient HEK293 G16g44, agonist Oxyphenonium 1 mM; format: cell-based; settings: HEK293, compound at 25 μM; receptor activated to EC80 with the corresponding agonist; read-out: screening result against bitter receptor 13
In short: as §1

[10] = target: T1, hT2R14; assay: hT2R panel inhibition, transient HEK293 G16g44, agonist Aristolochic Acid 2 μM; format: cell-based; settings: HEK293, compound at 25 μM; receptor activated to EC80 with the corresponding agonist; read-out: screening result against bitter receptor 14
In short: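 Agonist challenge was at EC80, with 0.5 mM andrographolide on hT2R8 and 2 μM aristolochic acid on hT2R14. Inhibition was measured in functional assays in HEK293 cells that stably carry the promiscuous G protein G16g44 and were transiently transfected with the individual receptor.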

[11] = target: hT2R16 (Homo sapiens (Human), UniProt Q9NYV7); assay: hT2R panel inhibition, transient HEK293 G16g44, agonist Salicin 1 mM; format: cell-based; settings: HEK293, compound at 25 μM; receptor activated to EC80 with the corresponding agonist; read-out: screening result against bitter receptor 16
In short: as §1

[12] = target: hT2R51 (Homo sapiens (Human), UniProt P59533); assay: hT2R panel inhibition, transient HEK293 G16g44, agonist Prop 2.5 μM; format: cell-based; settings: HEK293, compound at 25 μM; receptor activated to EC80 with the corresponding agonist; read-out: screening result against bitter receptor 51
In short: as §1

[13] = tested on: hT2R55; assay: hT2R panel inhibition, transient HEK293 G16g44, agonist Cinchonine 150 μM; format: cell-based, human; settings: compound at 25 μM; receptor activated to EC80 with the corresponding agonist
In short: as §1

[14] = target: hT2R61 (Homo sapiens (Human), UniProt P59537); assay: hT2R panel inhibition, transient HEK293 G16g44, agonist Aristolochic Acid 25 nM; format: cell-based; settings: HEK293, compound at 25 μM; receptor activated to EC80 with the corresponding agonist; read-out: screening result against bitter receptor 61
In short: as §1

[15] = target: hT2R64 (Homo sapiens (Human), UniProt P59538); assay: hT2R panel inhibition, transient HEK293 G16g44, agonist Aristolochic Acid 1 μM; format: cell-based; settings: HEK293, compound at 25 μM; receptor activated to EC80 with the corresponding agonist; read-out: screening result against bitter receptor 64
In short: as §1

[16] = tested on: hT2R65; assay: hT2R panel inhibition, transient HEK293 G16g44, agonist Oleuropein 1 mM; format: cell-based, human; settings: compound at 25 μM; receptor activated to EC80 with the corresponding agonist
In short: as §1

[17] = tested on: hT2R67; assay: hT2R panel inhibition, transient HEK293 G16g44, agonist Andrographolide 5 μM; format: cell-based, human; settings: compound at 25 μM; receptor activated to EC80 with the corresponding agonist
In short: as §1

[18] = target: hT2R71 (Homo sapiens (Human), UniProt P59536); assay: hT2R panel inhibition, transient HEK293 G16g44, agonist Picric Acid 10 μM; format: cell-based; settings: HEK293, compound at 25 μM; receptor activated to EC80 with the corresponding agonist; read-out: screening result against bitter receptor 71
In short: as §1

[19] = target: hT2R75 (Homo sapiens (Human), UniProt P59540); assay: hT2R panel inhibition, transient HEK293 G16g44, agonist Strychnine 1 μM; format: cell-based; settings: HEK293, read-out: screening result against bitter receptor 75, compound at 25 μM; receptor activated to EC80 with the corresponding agonist
[20] = read-out: IC50 on hT2R8 bitter receptor

Chain of hT2R8 (Q9NYW2 whole entry): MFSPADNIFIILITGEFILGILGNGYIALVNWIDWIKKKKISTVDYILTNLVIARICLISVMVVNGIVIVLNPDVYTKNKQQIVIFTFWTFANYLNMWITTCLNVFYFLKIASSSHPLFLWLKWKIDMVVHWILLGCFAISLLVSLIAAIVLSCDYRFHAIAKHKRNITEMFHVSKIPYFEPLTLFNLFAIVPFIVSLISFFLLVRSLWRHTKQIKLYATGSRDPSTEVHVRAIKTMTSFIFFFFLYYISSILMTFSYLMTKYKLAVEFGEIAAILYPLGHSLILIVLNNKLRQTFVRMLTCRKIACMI
T1 sequence (Q9NYV8 whole entry): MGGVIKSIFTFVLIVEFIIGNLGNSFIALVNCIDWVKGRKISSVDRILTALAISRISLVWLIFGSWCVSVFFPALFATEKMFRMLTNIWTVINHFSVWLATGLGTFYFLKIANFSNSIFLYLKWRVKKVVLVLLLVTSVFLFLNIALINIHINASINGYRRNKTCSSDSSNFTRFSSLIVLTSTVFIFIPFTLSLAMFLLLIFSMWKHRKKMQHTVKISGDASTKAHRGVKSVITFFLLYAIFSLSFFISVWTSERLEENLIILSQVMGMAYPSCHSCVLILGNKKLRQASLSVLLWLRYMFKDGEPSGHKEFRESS
Chain of hT2R64 (P59538 whole entry): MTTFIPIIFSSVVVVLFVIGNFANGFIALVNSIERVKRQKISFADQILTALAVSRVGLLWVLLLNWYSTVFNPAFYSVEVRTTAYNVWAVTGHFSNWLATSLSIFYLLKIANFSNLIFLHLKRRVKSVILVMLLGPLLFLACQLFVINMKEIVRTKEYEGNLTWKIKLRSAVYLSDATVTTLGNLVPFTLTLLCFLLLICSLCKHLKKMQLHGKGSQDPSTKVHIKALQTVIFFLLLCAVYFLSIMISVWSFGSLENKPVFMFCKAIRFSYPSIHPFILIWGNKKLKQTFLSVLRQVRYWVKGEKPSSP
Chain of hT2R13 (Q9NYV9 whole entry): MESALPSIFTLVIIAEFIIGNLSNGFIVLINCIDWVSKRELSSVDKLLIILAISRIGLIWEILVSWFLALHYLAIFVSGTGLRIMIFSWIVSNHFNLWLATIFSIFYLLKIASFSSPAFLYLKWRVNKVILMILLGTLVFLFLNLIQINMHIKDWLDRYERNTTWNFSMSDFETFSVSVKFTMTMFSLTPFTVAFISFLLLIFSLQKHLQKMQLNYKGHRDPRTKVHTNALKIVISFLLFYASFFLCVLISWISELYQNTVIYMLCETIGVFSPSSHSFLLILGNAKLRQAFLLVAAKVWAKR
Chain of hT2R4 (Q9NYW5 whole entry): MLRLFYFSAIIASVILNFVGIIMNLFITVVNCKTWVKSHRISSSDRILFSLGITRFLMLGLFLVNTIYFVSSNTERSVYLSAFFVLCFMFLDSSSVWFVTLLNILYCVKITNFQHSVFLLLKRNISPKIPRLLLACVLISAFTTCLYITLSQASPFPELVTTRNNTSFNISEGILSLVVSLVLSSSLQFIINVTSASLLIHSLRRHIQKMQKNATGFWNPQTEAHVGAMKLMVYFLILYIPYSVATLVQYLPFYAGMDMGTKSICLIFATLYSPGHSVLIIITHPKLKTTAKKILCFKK
Chain of hT2R10 (Q9NYW0 whole entry): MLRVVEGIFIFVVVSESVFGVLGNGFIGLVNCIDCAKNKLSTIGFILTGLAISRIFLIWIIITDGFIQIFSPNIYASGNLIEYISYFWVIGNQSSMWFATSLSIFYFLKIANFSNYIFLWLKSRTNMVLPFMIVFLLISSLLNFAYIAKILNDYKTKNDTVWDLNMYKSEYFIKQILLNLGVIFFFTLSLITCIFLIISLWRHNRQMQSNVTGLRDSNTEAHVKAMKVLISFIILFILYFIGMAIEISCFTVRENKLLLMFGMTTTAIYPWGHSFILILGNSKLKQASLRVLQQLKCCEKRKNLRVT
Chain of hT2R75 (P59540 whole entry): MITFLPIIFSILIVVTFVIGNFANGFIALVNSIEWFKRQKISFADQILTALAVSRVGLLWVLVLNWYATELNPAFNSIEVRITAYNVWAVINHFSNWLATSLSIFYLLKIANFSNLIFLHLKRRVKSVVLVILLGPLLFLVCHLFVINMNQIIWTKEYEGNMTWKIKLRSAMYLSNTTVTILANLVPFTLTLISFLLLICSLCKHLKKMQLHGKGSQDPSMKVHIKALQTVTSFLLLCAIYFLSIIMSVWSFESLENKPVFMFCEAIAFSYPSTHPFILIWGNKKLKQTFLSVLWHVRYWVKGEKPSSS
Chain of hT2R16 (Q9NYV7 whole entry): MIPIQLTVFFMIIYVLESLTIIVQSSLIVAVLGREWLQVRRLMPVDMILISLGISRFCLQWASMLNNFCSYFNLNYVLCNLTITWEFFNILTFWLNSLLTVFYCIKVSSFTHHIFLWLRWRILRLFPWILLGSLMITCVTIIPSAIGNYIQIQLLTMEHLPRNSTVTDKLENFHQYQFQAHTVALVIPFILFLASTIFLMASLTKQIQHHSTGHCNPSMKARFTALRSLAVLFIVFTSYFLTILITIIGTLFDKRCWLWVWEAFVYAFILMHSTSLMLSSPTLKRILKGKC
Chain of hT2R3 (Q9NYW6 whole entry): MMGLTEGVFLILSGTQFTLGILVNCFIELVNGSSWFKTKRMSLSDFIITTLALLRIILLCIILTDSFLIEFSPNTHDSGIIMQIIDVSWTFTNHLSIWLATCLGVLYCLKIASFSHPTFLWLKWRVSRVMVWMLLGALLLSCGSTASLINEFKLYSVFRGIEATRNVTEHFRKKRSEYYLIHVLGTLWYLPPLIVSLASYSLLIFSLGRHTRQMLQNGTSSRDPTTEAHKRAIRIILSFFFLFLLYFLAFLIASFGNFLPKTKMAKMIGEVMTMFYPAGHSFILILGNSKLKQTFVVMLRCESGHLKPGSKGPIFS
Chain of hT2R7 (Q9NYW3 whole entry): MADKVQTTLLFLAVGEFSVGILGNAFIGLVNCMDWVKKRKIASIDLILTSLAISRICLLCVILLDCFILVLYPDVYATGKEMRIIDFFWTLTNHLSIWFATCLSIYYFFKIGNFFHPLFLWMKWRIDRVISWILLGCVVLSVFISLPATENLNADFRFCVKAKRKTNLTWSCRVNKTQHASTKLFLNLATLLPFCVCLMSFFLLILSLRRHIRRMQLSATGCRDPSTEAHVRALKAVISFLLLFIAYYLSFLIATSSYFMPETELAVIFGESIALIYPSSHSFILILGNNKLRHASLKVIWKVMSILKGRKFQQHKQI
Chain of hT2R5 (Q9NYW4 whole entry): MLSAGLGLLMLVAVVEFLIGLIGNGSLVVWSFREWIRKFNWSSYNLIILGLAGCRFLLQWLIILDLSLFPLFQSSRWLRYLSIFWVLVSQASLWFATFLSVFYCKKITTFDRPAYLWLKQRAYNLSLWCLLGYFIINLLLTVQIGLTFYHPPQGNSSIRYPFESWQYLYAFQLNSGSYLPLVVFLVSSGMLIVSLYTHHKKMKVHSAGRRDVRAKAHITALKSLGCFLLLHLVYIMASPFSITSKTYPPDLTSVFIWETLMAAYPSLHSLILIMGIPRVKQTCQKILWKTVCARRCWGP
Chain of hT2R9 (Q9NYW1 whole entry): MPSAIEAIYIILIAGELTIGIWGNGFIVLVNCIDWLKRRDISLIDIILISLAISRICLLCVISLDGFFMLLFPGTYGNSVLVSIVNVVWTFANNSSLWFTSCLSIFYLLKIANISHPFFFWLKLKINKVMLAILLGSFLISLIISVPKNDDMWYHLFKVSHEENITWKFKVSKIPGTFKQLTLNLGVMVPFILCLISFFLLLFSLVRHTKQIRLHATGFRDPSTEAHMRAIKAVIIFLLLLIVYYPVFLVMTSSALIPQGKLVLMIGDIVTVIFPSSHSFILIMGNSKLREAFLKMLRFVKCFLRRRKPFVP
Chain of hT2R61 (P59537 whole entry): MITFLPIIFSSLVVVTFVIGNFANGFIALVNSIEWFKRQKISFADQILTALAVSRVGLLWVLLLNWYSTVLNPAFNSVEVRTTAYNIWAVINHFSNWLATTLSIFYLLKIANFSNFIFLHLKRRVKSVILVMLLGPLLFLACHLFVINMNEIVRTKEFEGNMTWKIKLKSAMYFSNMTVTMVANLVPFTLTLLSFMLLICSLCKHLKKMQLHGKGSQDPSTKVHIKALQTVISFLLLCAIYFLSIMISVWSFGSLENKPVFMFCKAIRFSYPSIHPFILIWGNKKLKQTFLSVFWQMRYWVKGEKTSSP
Chain of hT2R51 (P59533 whole entry): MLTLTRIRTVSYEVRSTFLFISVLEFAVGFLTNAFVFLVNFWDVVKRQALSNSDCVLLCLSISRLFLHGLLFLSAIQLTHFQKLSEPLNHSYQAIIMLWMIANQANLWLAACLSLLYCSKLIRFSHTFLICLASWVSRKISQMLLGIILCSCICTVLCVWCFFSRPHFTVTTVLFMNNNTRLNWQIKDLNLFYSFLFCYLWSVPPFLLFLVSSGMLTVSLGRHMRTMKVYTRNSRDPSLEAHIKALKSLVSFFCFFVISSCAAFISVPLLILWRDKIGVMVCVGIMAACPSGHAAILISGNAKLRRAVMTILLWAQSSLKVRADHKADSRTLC
Chain of hT2R71 (P59536 whole entry): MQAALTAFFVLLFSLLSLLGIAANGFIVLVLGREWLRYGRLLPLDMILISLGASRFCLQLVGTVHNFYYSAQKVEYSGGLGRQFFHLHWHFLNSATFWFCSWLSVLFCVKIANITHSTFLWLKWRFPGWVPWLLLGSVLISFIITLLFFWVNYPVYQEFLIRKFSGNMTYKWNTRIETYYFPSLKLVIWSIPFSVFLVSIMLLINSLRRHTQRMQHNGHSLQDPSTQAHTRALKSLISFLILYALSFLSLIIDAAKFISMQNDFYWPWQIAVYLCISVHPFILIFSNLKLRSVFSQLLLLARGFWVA

## Cc1noc(C)c1Cn1cc(NC(=O)C23CC4CC(CC(C4)C2)C3)cn1 [Example 4-16, N-(1-((3,5-dimethylisoxazol-4-yl)methyl)-1H-pyrazol-4-yl) adamantane]
[1]; [20]
  IC50: 0.88 µM
other
  melting point: 167 to 169 °C

## Cc1noc(C)c1Cn1cc(NC(=O)c2ccccn2)cn1 [Example 4-1, N-(1-((3,5-dimethylisoxazol-4-yl)methyl)-1H-pyrazol-4-yl)picolinamide]
[1]; [20]
  IC50: 0.57 µM
other
  melting point: 135 to 137 °C

## COc1ccc(CN(CC2CCCCC2)S(=O)(=O)c2ccc(C(=O)O)cc2)cc1 [Example 5-23, 4-(N-(cyclohexylmethyl)-N-(4-methoxybenzyl)sulfamoyl)-benzoic acid]
[2]
  IC50: 3.47 µM
[3]
  inhibition at 25 µM: 60 to 80%
[4]
  inhibition at 25 µM: 40 to 60%
[5]
  inhibition at 25 µM: 40 to 60%
[6]
  inhibition at 25 µM: 40 to 60%
[7]
  inhibition at 25 µM: 40 to 60%
[8]
  inhibition at 25 µM: > 80%
[9]
  inhibition at 25 µM: 20 to 40%
[10]
  inhibition at 25 µM: > 80%
[11]
  inhibition at 25 µM: 60 to 80%
[12]
  inhibition at 25 µM: 40 to 60%
[13]
  screening result against bitter receptor 55: ++++ (80% or greater inhibition = ++++)
[14]
  inhibition at 25 µM: > 80%
[15]
  inhibition at 25 µM: 60 to 80%
[16]
  screening result against bitter receptor 65: ++++ (80% or greater inhibition = ++++)
[17]
  screening result against bitter receptor 67: ++ (40% to 60% inhibition = ++)
[18]
  inhibition at 25 µM: > 80%
[19]
  inhibition at 25 µM: 40 to 60%

## Cc1noc(C)c1Cn1cc(-n2c(=O)n(C)n(Cc3ccccc3)c2=O)cn1 [Example 10-65, 1-Benzyl-4-(1-((3,5-dimethylisoxazol-4-yl)methyl)-1H-pyrazol-4-yl)-2-methyl-1,2,4-triazolidine-3,5-dione]
[1]; [20]
  IC50: 0.02 µM
[1]; table after Example 10-97, read-out: hT2R8 IC50
  IC50: 0.019 µM
other
  melting point: 124 to 126 °C
